Values after ≈ are worked out from the molar mass of the structure shown. Structures can show the parent of a compound that is named as a salt.
Tests used:
Experiment in all cases: Minimum inhibitory concentration in vitro
Type in all cases: cell-based
S. typhi UC 215 = settings: for Minimum Inhibitory Concentration: in vitro, S. typhi UC 215; for MIC: Salmonella enterica, read-out: Minimum Inhibitory Concentration
P. stuartii UC 6570 = settings: for MIC: Providencia stuartii, UC6570
S. faecalis UC 694 = settings: for MIC: Enterococcus faecalis, UC694
P. mirabilis UC 6671 = settings: for MIC: Proteus mirabilis, UC6671
E. coli UC 45 = settings: for MIC: Escherichia coli, UC45
S. aureus UC 76 = settings: for MIC: Staphylococcus aureus, UC76
S. marcescens UC 131 = settings: for MIC: Serratia marcescens, UC131
P. vulgaris UC 93 = settings: for MIC: Proteus vulgaris, UC93
K. pneumoniae UC 58 = settings: for MIC: Klebsiella pneumoniae, UC58
Ps. aeruginosa UC 95 = settings: for MIC: Pseudomonas aeruginosa, UC95
S. schottmuelleri UC 126 = system: S. schottmuelleri UC 126
S. flexneri UC 143 = settings: Shigella flexneri, UC143

Row | Molecule | Minimum Inhibitory Concentration (S. typhi UC 215) [Micrograms/Milliliter] | Minimum Inhibitory Concentration (S. faecalis UC 694) [Micrograms/Milliliter] | Minimum Inhibitory Concentration (P. mirabilis UC 6671) [Micrograms/Milliliter] | Minimum Inhibitory Concentration (S. aureus UC 76) [Micrograms/Milliliter] | Minimum Inhibitory Concentration (S. marcescens UC 131) [Micrograms/Milliliter] | Minimum Inhibitory Concentration (P. vulgaris UC 93) [Micrograms/Milliliter] | Minimum Inhibitory Concentration (K. pneumoniae UC 58) [Micrograms/Milliliter] | MIC (S. schottmuelleri UC 126) [µg/mL] | MIC (S. typhi UC 215) [µg/mL] | MIC (P. stuartii UC 6570) [µg/mL] | MIC (S. faecalis UC 694) [µg/mL] | MIC (P. mirabilis UC 6671) [µg/mL] | MIC (E. coli UC 45) [µg/mL] | MIC (S. aureus UC 76) [µg/mL] | MIC (S. marcescens UC 131) [µg/mL] | MIC (P. vulgaris UC 93) [µg/mL] | MIC (K. pneumoniae UC 58) [µg/mL] | MIC (Ps. aeruginosa UC 95) [µg/mL] | MIC (S. flexneri UC 143) [µg/mL] | other results
1 | mono-N-demethyl-mono-N-ethylspectinomycin dihydrochloride [IIIb] | 125 | 500 | 15.6 | 31.2 | 7.8 | 7.8 | 3.9 |  |  |  |  |  |  |  |  |  |  |  |  | Minimum Inhibitory Concentration (P. stuartii UC 6570): > 500 Micrograms/Milliliter; Minimum Inhibitory Concentration (E. coli UC 45): 62.5 Micrograms/Milliliter; Minimum Inhibitory Concentration (Ps. aeruginosa UC 95): 31.2 Micrograms/Milliliter
2 | Mono-N-demethylspectinomycin dihydrochlorides [IIb] | 62.5 | 125 | 15.6 | 15.6 | 3.9 | 15.6 | 15.6 |  |  |  |  |  |  |  |  |  |  |  |  | 
3 | CCN[C@@H]1[C@H](O)[C@H](NCC)[C@H]2O[C@@]3(O)C(=O)C[C@@H](C)O[C@H]3O[C@@H]2[C@H]1O [IIIa, N,N'-didemethyl-N,N'-diethylspectinomycin dihydrochloride] |  |  |  |  |  |  |  | > 1000 | 1000 | > 1000 | > 1000 | 62.5 | 1000 | 500 | 62.5 | 125 | 31.2 | 1000 | 31.2 | 
4 | C[C@@H]1CC(=O)[C@]2(O)O[C@@H]3[C@@H](N)[C@@H](O)[C@@H](N)[C@H](O)[C@H]3O[C@@H]2O1 [IIa, N,N'-didemethylspectinomycin dihydrochloride] |  |  |  |  |  |  |  |  | > 1000 |  | > 1000 | 1000 | > 1000 | 250 | 31.2 | 125 | 125 | 250 | 250 | 
5 | CN[C@@H]1[C@H](O)[C@H](NC)[C@H]2O[C@@]3(O)C(=O)C[C@@H](C)O[C@H]3O[C@@H]2[C@H]1O [Ia, spectinomycin] |  |  |  |  |  |  |  | 7.8 (≈ 23.5 µM) | 3.9 to 7.8 (≈ 11.7 to 23.5 µM) | 1000 (≈ 3010 µM) | 31.2 to 62.5 (≈ 93.9 to 188 µM) | 3.9 to 7.8 (≈ 11.7 to 23.5 µM) | 3.9 to 7.8 (≈ 11.7 to 23.5 µM) | 7.8 (≈ 23.5 µM) | 3.9 to 7.8 (≈ 11.7 to 23.5 µM) | 7.8 to 15.6 (≈ 23.5 to 46.9 µM) | 2 to 3.9 (≈ 6.02 to 11.7 µM) | 31.2 (≈ 93.9 µM) | 3.9 to 7.8 (≈ 11.7 to 23.5 µM) | 
